Source: patent US11154621B2, “Liponucleotide-based therapy for COPD” (priority 2017, dated 2021)

Tests used:
[1] = system: influenza A/WSN/33 (H1N1)-infected mice; assay: Effect of influenza infection and i.p. liponucleotide treatment on lung function; type: in vivo, mouse
[2] = system: elastase-induced emphysema in C57BL/6 mice; assay: Mouse model of emphysema (intratracheal elastase administration); type: in vivo; settings: daily i.p. days 1-13, day 14
Method: To experimentally determine the efficacy of the liponucleotides (lipoNTs) CDP-choline (CDP-CHO), CDP-ethanolamine (CDP-ETH), and CDP-diacylglycerol 16:0/16:0 (CDP-DAG) as therapeutics in a mouse model of emphysema (intratracheal elastase administration) (Yoshida S, et al. Am J Physiol Lung Cell Mol Physiol 2012 303:L852-L860).
(§1) To induce emphysema, porcine pancreatic elastase was administered intratracheally to adult female C57BL/6 mice (n=5-10 per group) by per os intubation under light anesthesia at day 0 and day 7. LipoNTs were administered daily by the intraperitoneal route in 50 μl sterile saline at the timepoints indicated for each group.
Analysis of elastase and lipoNT effects: Data were collected 14 days after first elastase administration in terminal experiments.
1. Static lung compliance (CST) was measured in live mice by the forced-oscillation method using the SciReq flexiVent computer-controlled mechanical ventilator, as in previous studies (Traylor Z P, Yet al. Am J Physiol Lung Cell Mol Physiol 2010 298:L437-L445).
2. Following flexiVent analysis, bronchoalveolar lavage was performed on all mice using 0.8 ml PBS. BALF total and differential cell counts (trypan-blue stained live cells and Giemsa-stained cytospins, respectively) were performed on cell pellets to assess inflammatory cell infiltrates. BALF alveolar macrophage (AM) counts were determined.

[3] = system: BLEO-induced pulmonary fibrosis in C57BL/6 mice; assay: Mouse model of pulmonary fibrosis (bleomycin exposure); type: in vivo; settings: for Mortality: CDP-CHO, CDP-ETH 5 mg/kg, CDP-DAG 0.5 mg/kg
Method: To experimentally determine the efficacy of the liponucleotides (lipoNTs) CDP-choline (CDP-CHO), CDP-ethanolamine (CDP-ETH), and CDP-diacylglycerol 16:0/16:0 (CDP-DAG) as therapeutics in a mouse model of pulmonary fibrosis (bleomycin exposure) (Chung S, et al. Oncotarget 2016 7:17532-17546).
as §1, with “bleomycin (BLEO)” for “porcine pancreatic elastase”, “light ketamine/xylazine” for “light”, “0.” for “0 and day 7.”
Data were collected 21 days after first exposure to BLEO in terminal experiments.
2. Carotid arterial O2 saturation (SaO2) and heart rate were measured in conscious individually-identified animals by pulse oximetry using the MouseOx system.
3. Static lung compliance (CST) was measured in live mice by the forced-oscillation method using the SciReq flexiVent computer-controlled mechanical ventilator, as in previous studies (Traylor Z P, et al. Am J Physiol Lung Cell Mol Physiol 2010 298:L437-L445).
4. Following flexiVent analysis, lungs were removed and flash frozen in liquid N2 for analysis of collagen content. Soluble collagen was measured by a standard Sircol assay.

[4] = infected mice, day 6, i.p. daily from 1-5 days post-infection, CDP-CHO, CDP-ETH 100 μg/mouse, CDP-DAG 10 μg/mouse

Molecule	PaO2 equivalent ([1]; equivalent of SaO2 increase, from approximately 65 mmHg)	O2 carrying capacity of blood (CaO2) ([1]; equivalent of SaO2 increase, from approximately 88%)	SaO2 after CDP-choline treatment ([1]; increased from approximately 85%, infected mice)	effects of single dose treatment late in infection compared with daily treatment ([1]; infected mice)	SaO2 (%) [1, 4]	static lung compliance (CST) ([2]; CDP-CHO, CDP-ETH 5 mg/kg, CDP-DAG 0.5 mg/kg)	elastase-induced increase in BALF alveolar macrophages (AMs) [2]	Mortality ([3]; BLEO, daily i.p. D1-20, day 21)	Mortality ([3]; BLEO, daily i.p. D1-20, day 21, listed as CHO)	CST (ml/cmH2O ×10) ([3]; BLEO, daily i.p. D1-20, day 21)	SaO2 (%) ([3]; BLEO, daily i.p. D1-20, day 21)	Collagen ([3]; BLEO, daily i.p. D1-20, lung soluble collagen, day 21)	other beneficial effects in this model of pulmonary fibrosis ([3]; daily from 1-20 days after BLEO)	HR (bpm) [1, 4]	WET:DRY [1, 4]
C[N+](C)(C)CCOP(=O)(O)OP(=O)(O)OC[C@H]1O[C@@H](n2ccc(N)nc2=O)C(O)C1O (stereo partly shown) [CDP-CHO, CDP-choline]	approximately 85 mmHg	approximately 97 % of normal	approximately 96%	as good as those of daily treatment	93.5 ± 1.0 %	decreases CST	enhanced	significantly attenuated BLEO-induced mortality	20%	0.38 ± 0.02 ml/cmH2O ×10	97.0 ± 1.0%	0.79 ± 0.08 mg/mL	no other beneficial effects	–	–
CDP-diacylglycerol [CDP-DAG]	–	–	–	–	95.2 ± 1.6 %	–	–	–	–	–	–	–	–	600 ± 10 bpm	5.8 ± 0.1
